Assays:
ACK = ACK (Homo sapiens, UniProt Q07912); experiment: Kinase selectivity profiling
CHK2 = CHK2 (Homo sapiens, UniProt O96017); experiment: Kinase selectivity profiling
EPHB4 = EPHB4 (Homo sapiens, UniProt P54760); experiment: Kinase selectivity profiling
ABL2 = ABL2 (Homo sapiens, UniProt P42684); experiment: Kinase selectivity profiling
AKT2 = AKT2 (Homo sapiens, UniProt P31751); experiment: Kinase selectivity profiling
MER = MER (Homo sapiens, UniProt Q12866); experiment: Kinase selectivity profiling
CK1ε = CK1ε (Homo sapiens, UniProt P49674); experiment: Kinase selectivity profiling
CDK2/CycE1 = CDK2/CycE1 (Homo sapiens, UniProt P24941); experiment: Kinase selectivity profiling
CK1δ = CK1δ (Homo sapiens, UniProt P48730); experiment: Kinase selectivity profiling
IRR = IRR (Homo sapiens, UniProt P14616); experiment: Kinase selectivity profiling
PAK2 = PAK2 (Homo sapiens, UniProt Q13177); experiment: Kinase selectivity profiling
PIK3CD/PIK3R1 = PIK3CD/PIK3R1 (Homo sapiens, UniProt O00329); experiment: Kinase selectivity profiling
Huh7 = Huh7 viability assay; type: cell-based; settings: Homo sapiens, Huh-7; Huh7, FGF19-overexpressing HCC cell line, 72 h, CCK-8
Method: Hep3B (ThermoFisher Scientific, 11965, America) and Huh7 (ThermoFisher Scientific, 11095, America) cells were seeded into 96-well plates at 4000 cells/well and 2000 cells/well, respectively. […] Cell viabilities were measured by a CCK-8 kit (Vazyme, China). The IC50 values were calculated using GraphPad Prism software.

CDK9/CycK = CDK9/CycK (Homo sapiens, UniProt P50750); experiment: Kinase selectivity profiling
EPHB2 = EPHB2 (Homo sapiens, UniProt P29323); experiment: Kinase selectivity profiling
CK1γ1 = CK1γ1 (Homo sapiens, UniProt Q9HCP0); experiment: Kinase selectivity profiling
PLK2 = PLK2 (Homo sapiens, UniProt Q9NYY3); experiment: Kinase selectivity profiling
DCAMKL1 = DCAMKL1 (Homo sapiens, UniProt O15075); experiment: Kinase selectivity profiling
TSSK1 = TSSK1 (Homo sapiens, UniProt Q9BXA7); experiment: Kinase selectivity profiling
EPHA2 = EPHA2 (Homo sapiens, UniProt P29317); experiment: Kinase selectivity profiling
DYRK1A = DYRK1A (Homo sapiens, UniProt Q13627); experiment: Kinase selectivity profiling
PIK3CB/PIK3R1 = PIK3CB/PIK3R1 (Homo sapiens, UniProt P42338); experiment: Kinase selectivity profiling
HIPK3 = HIPK3 (Homo sapiens, UniProt Q9H422); experiment: Kinase selectivity profiling
FYNb = FYNb (Homo sapiens, UniProt P06241); experiment: Kinase selectivity profiling
TRKC(NTRK3) = TRKC(NTRK3) (Homo sapiens, UniProt Q16288); experiment: Kinase selectivity profiling
AKT1 = AKT1 (Homo sapiens, UniProt P31749); experiment: Kinase selectivity profiling
CDK18/CycY = CDK18/CycY (Homo sapiens, UniProt Q07002); experiment: Kinase selectivity profiling
DDR2 = DDR2 (Homo sapiens, UniProt Q16832); experiment: Kinase selectivity profiling
CDK1/CycA2 = CDK1/CycA2 (Homo sapiens, UniProt P06493); experiment: Kinase selectivity profiling
FYNa = FYNa (Homo sapiens, UniProt P06241); experiment: Kinase selectivity profiling
BMX = BMX (Homo sapiens, UniProt P51813); experiment: Kinase selectivity profiling
EGFR = EGFR (Homo sapiens, UniProt P00533); experiment: Kinase selectivity profiling
AXL = AXL (Homo sapiens, UniProt P30530); experiment: Kinase selectivity profiling
NEK9 = NEK9 (Homo sapiens, UniProt Q8TD19); experiment: Kinase selectivity profiling
BRSK2 = BRSK2 (Homo sapiens, UniProt Q8IWQ3); experiment: Kinase selectivity profiling
Erk1 = Erk1 (Homo sapiens, UniProt P27361); experiment: Kinase selectivity profiling
HPK1 = HPK1 (Homo sapiens, UniProt Q92918); experiment: Kinase selectivity profiling
DAPK1 = DAPK1 (Homo sapiens, UniProt P53355); experiment: Kinase selectivity profiling
BRK = BRK (Homo sapiens, UniProt Q13882); experiment: Kinase selectivity profiling

Sequence of EPHB4 (P54760 16-987): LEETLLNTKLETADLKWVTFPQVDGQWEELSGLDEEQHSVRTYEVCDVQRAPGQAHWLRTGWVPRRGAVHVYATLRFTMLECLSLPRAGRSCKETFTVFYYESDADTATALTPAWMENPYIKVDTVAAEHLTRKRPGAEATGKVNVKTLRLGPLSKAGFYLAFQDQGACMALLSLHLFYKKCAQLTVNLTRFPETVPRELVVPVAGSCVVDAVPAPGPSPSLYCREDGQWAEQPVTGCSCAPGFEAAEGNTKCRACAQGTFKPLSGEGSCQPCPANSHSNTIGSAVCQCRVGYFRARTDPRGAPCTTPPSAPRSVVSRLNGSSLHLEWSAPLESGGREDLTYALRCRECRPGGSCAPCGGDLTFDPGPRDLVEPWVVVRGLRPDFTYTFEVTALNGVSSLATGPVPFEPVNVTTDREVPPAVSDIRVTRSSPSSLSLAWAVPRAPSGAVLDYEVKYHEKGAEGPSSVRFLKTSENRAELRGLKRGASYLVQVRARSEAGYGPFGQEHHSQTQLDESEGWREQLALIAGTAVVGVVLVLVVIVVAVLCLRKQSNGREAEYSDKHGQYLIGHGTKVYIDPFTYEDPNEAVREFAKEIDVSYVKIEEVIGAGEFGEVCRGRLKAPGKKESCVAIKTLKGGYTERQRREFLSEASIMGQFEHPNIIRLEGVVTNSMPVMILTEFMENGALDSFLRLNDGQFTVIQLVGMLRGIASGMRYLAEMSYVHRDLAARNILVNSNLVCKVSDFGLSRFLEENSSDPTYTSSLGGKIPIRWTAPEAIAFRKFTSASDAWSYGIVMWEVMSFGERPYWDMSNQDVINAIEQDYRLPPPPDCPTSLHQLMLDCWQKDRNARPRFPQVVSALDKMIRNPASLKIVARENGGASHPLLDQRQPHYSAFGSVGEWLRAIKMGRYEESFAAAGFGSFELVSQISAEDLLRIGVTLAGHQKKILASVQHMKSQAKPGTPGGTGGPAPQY
Sequence of ACK (Q07912 whole entry): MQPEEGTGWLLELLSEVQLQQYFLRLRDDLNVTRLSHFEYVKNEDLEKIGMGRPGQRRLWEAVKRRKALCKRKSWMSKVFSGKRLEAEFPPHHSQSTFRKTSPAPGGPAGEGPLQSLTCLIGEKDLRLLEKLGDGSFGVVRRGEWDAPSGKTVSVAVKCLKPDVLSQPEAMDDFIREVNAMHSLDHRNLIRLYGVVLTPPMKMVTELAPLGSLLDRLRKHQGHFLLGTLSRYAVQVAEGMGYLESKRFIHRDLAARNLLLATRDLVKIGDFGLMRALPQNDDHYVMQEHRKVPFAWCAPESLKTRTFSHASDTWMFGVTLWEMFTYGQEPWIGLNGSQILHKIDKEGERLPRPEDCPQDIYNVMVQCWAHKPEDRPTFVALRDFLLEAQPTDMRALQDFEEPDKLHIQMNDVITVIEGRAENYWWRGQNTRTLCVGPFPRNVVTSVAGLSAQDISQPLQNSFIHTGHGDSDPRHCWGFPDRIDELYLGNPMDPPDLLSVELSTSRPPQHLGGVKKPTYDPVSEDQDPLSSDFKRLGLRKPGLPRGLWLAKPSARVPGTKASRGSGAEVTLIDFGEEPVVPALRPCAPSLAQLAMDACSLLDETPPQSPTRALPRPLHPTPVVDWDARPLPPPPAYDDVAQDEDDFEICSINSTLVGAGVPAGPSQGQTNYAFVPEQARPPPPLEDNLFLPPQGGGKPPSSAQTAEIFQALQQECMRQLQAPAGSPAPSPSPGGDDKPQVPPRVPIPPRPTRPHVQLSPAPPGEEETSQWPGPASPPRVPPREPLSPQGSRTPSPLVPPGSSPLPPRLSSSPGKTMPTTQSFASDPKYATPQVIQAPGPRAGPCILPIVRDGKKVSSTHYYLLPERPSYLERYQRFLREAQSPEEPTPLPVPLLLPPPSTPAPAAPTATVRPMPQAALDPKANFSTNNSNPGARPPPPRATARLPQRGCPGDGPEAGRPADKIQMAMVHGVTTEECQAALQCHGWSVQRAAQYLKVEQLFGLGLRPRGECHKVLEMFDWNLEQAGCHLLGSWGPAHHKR
Sequence of PIK3CB/PIK3R1 (P42338 whole entry): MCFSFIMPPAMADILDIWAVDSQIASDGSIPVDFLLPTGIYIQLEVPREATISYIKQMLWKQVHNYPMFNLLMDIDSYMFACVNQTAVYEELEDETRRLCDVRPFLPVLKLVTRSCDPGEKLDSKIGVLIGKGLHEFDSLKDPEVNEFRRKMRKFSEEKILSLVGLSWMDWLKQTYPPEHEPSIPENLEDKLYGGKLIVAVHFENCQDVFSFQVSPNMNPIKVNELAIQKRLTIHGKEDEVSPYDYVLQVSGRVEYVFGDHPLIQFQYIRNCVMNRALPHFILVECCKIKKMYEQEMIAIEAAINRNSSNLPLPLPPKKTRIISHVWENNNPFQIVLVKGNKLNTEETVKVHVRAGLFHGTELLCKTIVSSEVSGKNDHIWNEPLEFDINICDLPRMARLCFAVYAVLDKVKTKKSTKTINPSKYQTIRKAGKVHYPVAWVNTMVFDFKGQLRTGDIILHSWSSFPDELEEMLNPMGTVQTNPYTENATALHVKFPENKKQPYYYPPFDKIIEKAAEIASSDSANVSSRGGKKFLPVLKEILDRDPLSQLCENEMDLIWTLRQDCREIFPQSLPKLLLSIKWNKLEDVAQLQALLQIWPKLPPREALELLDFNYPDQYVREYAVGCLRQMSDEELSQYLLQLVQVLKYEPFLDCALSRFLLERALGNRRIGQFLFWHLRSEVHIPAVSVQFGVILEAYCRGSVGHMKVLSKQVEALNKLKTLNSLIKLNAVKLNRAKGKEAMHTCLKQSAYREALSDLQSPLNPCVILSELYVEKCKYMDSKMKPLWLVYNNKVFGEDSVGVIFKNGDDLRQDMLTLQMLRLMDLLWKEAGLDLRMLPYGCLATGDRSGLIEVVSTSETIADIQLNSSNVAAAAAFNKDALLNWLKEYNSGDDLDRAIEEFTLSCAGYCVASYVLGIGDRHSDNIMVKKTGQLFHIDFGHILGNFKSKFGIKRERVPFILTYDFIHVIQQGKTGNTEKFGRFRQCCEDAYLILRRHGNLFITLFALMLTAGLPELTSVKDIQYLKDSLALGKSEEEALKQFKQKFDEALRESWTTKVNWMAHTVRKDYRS
Sequence of PIK3CB/PIK3R1 (P27986 whole entry partner): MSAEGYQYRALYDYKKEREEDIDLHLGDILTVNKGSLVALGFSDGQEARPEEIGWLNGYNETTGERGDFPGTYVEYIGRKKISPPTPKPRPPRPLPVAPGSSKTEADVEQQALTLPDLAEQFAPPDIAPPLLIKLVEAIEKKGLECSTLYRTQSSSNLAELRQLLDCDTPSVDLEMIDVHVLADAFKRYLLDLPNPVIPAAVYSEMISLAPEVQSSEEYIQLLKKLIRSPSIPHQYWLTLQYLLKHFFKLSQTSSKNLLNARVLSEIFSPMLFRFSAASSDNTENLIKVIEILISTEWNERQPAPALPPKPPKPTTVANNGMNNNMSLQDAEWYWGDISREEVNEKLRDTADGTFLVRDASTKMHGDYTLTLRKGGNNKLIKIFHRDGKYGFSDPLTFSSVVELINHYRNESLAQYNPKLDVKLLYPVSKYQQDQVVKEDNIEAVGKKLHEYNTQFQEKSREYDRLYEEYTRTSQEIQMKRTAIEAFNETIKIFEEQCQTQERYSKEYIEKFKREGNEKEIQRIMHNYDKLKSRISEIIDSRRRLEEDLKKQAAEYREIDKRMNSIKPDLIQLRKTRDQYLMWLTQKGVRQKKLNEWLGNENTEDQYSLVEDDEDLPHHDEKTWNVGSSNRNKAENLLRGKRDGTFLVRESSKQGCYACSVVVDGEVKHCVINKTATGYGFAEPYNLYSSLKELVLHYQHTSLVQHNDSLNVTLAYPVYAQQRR
Sequence of AKT2 (P31751 whole entry): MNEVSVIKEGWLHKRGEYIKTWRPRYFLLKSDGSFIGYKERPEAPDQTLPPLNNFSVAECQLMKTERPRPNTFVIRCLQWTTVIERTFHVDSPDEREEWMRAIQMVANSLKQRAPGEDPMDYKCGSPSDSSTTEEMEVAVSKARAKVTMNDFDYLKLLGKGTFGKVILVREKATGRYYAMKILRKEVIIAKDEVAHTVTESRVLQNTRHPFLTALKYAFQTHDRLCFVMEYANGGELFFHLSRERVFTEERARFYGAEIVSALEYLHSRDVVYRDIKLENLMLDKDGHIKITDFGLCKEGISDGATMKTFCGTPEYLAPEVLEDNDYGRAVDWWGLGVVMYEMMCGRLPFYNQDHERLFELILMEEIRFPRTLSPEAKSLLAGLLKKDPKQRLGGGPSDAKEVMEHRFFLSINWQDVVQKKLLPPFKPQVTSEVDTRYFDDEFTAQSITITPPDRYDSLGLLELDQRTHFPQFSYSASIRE
Sequence of FYNa (P06241 whole entry): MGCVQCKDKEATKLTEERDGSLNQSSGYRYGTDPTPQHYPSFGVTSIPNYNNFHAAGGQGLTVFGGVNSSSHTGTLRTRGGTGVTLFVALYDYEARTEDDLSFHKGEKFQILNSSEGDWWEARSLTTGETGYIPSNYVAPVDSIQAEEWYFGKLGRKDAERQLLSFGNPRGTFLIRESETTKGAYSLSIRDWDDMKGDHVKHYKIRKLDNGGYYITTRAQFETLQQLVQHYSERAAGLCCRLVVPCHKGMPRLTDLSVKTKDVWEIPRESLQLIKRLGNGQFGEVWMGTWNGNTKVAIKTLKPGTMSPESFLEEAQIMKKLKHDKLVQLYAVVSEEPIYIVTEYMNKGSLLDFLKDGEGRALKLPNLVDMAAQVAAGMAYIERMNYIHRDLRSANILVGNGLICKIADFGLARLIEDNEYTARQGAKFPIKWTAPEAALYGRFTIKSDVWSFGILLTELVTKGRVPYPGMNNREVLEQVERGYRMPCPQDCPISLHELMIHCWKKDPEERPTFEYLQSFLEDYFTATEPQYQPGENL

Structure (SMILES): C=CC(=O)Nc1ccccc1Nc1ncc2c(n1)N(CCCN1CCN(C(=O)C=C)CC1)C(=O)N(c1cc(OC)cc(OC)c1)C2 [CXF-009]
- inhibition at 1 µM (ACK): 4.18%
- inhibition at 1 µM (CHK2): -3.02%
- inhibition at 1 µM (EPHB4): -1.86%
- inhibition at 1 µM (ABL2): 1.61%
- inhibition at 1 µM (AKT2): 3.35%
- inhibition at 1 µM (MER): 3.59%
- inhibition at 1 µM (CK1ε): -4.6%
- inhibition at 1 µM (CDK2/CycE1): 1.59%
- inhibition at 1 µM (CK1δ): -1.29%
- inhibition at 1 µM (IRR): -3.5%
- inhibition at 1 µM (PAK2): 3.22%
- inhibition at 1 µM (PIK3CD/PIK3R1): -44.4%
- IC50 (Huh7): 0.727 µM
- inhibition at 1 µM (CDK9/CycK): 0.11%
- inhibition at 1 µM (EPHB2): -3.12%
- inhibition at 1 µM (CK1γ1): 4.78%
- inhibition at 1 µM (PLK2): -19.5%
- inhibition at 1 µM (DCAMKL1): 13.4%
- inhibition at 1 µM (TSSK1): 30%
- inhibition at 1 µM (EPHA2): 2.12%
- inhibition at 1 µM (DYRK1A): -1.23%
- inhibition at 1 µM (PIK3CB/PIK3R1): 0.17%
- inhibition at 1 µM (HIPK3): -4.6%
- inhibition at 1 µM (FYNb): -2.49%
- inhibition at 1 µM (TRKC(NTRK3)): 8.57%
- inhibition at 1 µM (AKT1): 3.98%
- inhibition at 1 µM (CDK18/CycY): -3.74%
- inhibition at 1 µM (DDR2): 2.15%
- inhibition at 1 µM (CDK1/CycA2): -1.02%
- inhibition at 1 µM (FYNa): -9.44%
- inhibition at 1 µM (BMX): 10.5%
- inhibition at 1 µM (EGFR): -16.3%
- inhibition at 1 µM (AXL): -7.53%
- inhibition at 1 µM (NEK9): 5.11%
- inhibition at 1 µM (BRSK2): -5.03%
- inhibition at 1 µM (Erk1): 3.99%
- inhibition at 1 µM (HPK1): -2.36%
- inhibition at 1 µM (DAPK1): 2.52%
- inhibition at 1 µM (BRK): 1.91%
